US9518050B2, “Cyclohexyl and quinuclidinyl carbamate derivatives having β2 adrenergic agonist and M3 muscarinic antagonist activity” (priority 2012, dated 2016)

Experiments:
[1] = target: T1, human adrenergic beta2 receptor (Homo sapiens, UniProt P07550); assay: Human adrenergic β2 receptor binding assay (3H-CGP12177, Sf9 cell membranes); conditions: 0.6 nM 3H-CGP12177, Sf9 membranes 5 μg/well, 60 min room temperature; read-out: Binding, IC50, nM β2
T1 construct: purchased Perkin Elmer; host or cells: Sf9 cells (overexpressed; membranes)
Procedure: Typically said beta2-adrenergic binding assay comprises: • a) providing a membrane suspension comprising Sf9 cells in an assay buffer • b) incubating with 3H-CGP12177 in plates previously treated with assay buffer containing a coating agent • c) measuring binding of test compound in the presence of propanolol • d) maintaining incubation • e) terminating the binding reactions • f) determining the affinity of the test compound for the receptor by repeating steps a) to e) using multiple different test compound concentrations. • g) calculating an IC50 using the four parameters-log equation.
Test 1: Human Adrenergic β1 and β2 Receptor Binding Assays
The study of binding to human adrenergic beta1 and beta2 receptors was performed using commercial membranes prepared from Sf9 cells where they are overexpressed (Perkin Elmer). The membrane suspensions (16 μg/well for beta1 and 5 μg/well for beta2) in assay buffer (75 mM Tris/HCl with 12.5 mM MgCl2 and 2 mM EDTA pH=7.4) were incubated with 0.14 or 0.6 nM of 3H-CGP12177 (Amersham) for beta 1 and beta 2 receptors respectively in a final volume of 250 μl, in GFC Multiscreen 96 well plates (Millipore) previously treated with assay buffer containing 0.3% PEI (Sigma). Non specific binding was measured in the presence of 1 μM propanolol. Incubation was maintained for 60 minutes at room temperature and with gentle shaking. The binding reactions were terminated by filtration and washing with 2.5 volumes of Tris/HCl 50 mM pH=7.4. The affinity of each test compound to the receptor was determined by using ten different concentrations ran in duplicate. IC50s were calculated using Activity Base software from IDBS and the four parameters-log equation.

[2] = target: T2, human muscarinic M3 receptor (Homo sapiens, UniProt P20309); assay: Human muscarinic M3 receptor binding assay ([3H]-NMS, CHO-K1 cell membranes); conditions: 1 nM [3H]-NMS, CHO-K1 membranes 4.9 μg/well, two hours incubation; read-out: Binding, IC50, nM M3
T2 construct: purchased Perkin Elmer; host or cells: CHO-K1 cells (membranes)
T2 sequence (P20309 whole entry): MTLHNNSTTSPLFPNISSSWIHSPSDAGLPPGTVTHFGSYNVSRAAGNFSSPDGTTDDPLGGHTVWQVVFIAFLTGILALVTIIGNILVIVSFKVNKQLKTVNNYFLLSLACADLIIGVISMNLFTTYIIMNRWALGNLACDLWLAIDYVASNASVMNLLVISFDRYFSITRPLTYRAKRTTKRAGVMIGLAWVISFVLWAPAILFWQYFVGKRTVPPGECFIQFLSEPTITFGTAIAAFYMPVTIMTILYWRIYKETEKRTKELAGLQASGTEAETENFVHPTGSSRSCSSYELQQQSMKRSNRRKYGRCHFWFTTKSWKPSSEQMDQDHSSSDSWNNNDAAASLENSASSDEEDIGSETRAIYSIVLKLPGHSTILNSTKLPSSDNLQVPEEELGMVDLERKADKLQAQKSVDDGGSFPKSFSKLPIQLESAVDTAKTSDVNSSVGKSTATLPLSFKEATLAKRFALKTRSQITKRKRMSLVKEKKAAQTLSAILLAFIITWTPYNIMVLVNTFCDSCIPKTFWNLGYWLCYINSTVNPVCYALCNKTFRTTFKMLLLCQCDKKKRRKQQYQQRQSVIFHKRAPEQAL
Procedure: Test 2: Human Muscarinic M1, M2, M3, M4 and M5 Receptors Binding Assays
The study of binding to human muscarinic M1, M2, M3, M4 and M5 receptors was performed using commercial membranes (Perkin Elmer) prepared from CHO-K1 cells. Radioligand binding experiments were conducted in 96 polypropylene well plates in a total volume of 200 μl. All reagents were dissolved in assay binding buffer (PBS with calcium and magnesium, SIGMA), except compounds that were dissolved in DMSO 100%. Non-specific binding (NSB) was measured in the presence of 1 μM atropine. [3H]-NMS was used as the radioligand at a concentration of 1 nM for M2, M3 and M5 and 0.3 nM for M1 and M4. [3H]-NMS and antagonists were incubated with membranes that express human muscarinic receptors M1, M2, M3, M4 and M5 at concentrations of 8.1, 10, 4.9, 4.5 and 4.9 μg/well, respectively.
After an incubation period of two hours with gentle shaking, 150 μl of the reaction mix were transferred to 96 GF/C filter plates (Millipore), previously treated with wash buffer (Tris 50 mM; NaCl 100 mM; pH:7.4), containing 0.05% PEI (Sigma) during one hour. Bound and free [3H]-NMS were separated by rapid vacuum filtration in a manifold from Millipore and washed four times with ice cold wash buffer. After drying 30 min, 30 μl of OPTIPHASE Supermix were added to each well and radioactivity quantified using a Microbeta microplate scintillation counter.
The affinity of each test compound to the receptors was determined by using ten different concentrations ran in duplicate. IC50s were calculated using Activity Base software from IDBS and the four parameters-log equation.

With “(3R)-1-azabicyclo[2.2.2]oct-3-yl(5-{4-[4-(2-{[(2R)-2-hydroxy-2-(8-hydroxy-2-oxo-1,2-dihydroquinolin-5-yl)ethyl]amino}ethyl)phenoxy]butyl}biphenyl-2-yl)carbamate dihydrofluoride [Example 21]” as the substance, how does the IC50 [1] read?
The IC50 was 1.3 nM.

What about the IC50 [2] of the same substance?
Its IC50 is 1.2 nM.

“trans-4-[methyl(3-phenylpropyl)amino]cyclohexyl[4-(4-{[4-({[(2R)-2-hydroxy-2-(8-hydroxy-2-oxo-1,2-dihydroquinolin-5-yl)ethyl]amino}methyl)phenyl]amino}-4-oxobutyl)biphenyl-2-yl]carbamate dihydrofluoride [Example 40]” was tested. Which IC50 [1] did it give?
The IC50 was 2 nM.

What about the IC50 [2] of the same substance?
The IC50 was 0.78 nM.

For “trans-4-aminocyclohexyl(4-{2-[({[2-chloro-4-({[(2R)-2-hydroxy-2-(8-hydroxy-2-oxo-1,2-dihydroquinolin-5-yl)ethyl]amino}methyl)-5-methoxyphenyl]amino}carbonyl)oxy]ethyl}biphenyl-2-yl)carbamate dihydrochloride [Example 49]”, which IC50 [1] is on record?
Its IC50 is 7.2 nM.

What about the IC50 [2] of the same substance?
Its IC50 is 0.59 nM.

With “trans-4-aminocyclohexyl(4-{3-[{[2-chloro-4-({[(2R)-2-hydroxy-2-(8-hydroxy-2-oxo-1,2-dihydroquinolin-5-yl)ethyl]amino}methyl)-5-methoxyphenoxy]acetyl}(methyl)-amino]propyl}biphenyl-2-yl)carbamate dihydrochloride [Example 47]” as the substance, how does the IC50 [1] read?
The IC50 was 8.5 nM.

What about the IC50 [2] of the same substance?
The IC50 was 0.65 nM.

With “trans-4-aminocyclohexyl(4-{4-[6-({[(2R)-2-hydroxy-2-(8-hydroxy-2-oxo-1,2-dihydroquinolin-5-yl)ethyl]amino}methyl)-5-methoxy-2-oxo-1,3-benzoxazol-3(2H)-yl]butyl}biphenyl-2-yl)carbamate dihydrofluoride [Example 39]” as the substance, how does the IC50 [1] read?
The IC50 was 10 nM.

And the IC50 [2]?
Its IC50 is 0.56 nM.

For “trans-4-aminocyclohexyl(4-{5-[6-({[(2R)-2-hydroxy-2-(8-hydroxy-2-oxo-1,2-dihydroquinolin-5-yl)ethyl]amino}methyl)-2-oxo-1,3-benzoxazol-3(2H)-yl]pentyl}biphenyl-2-yl)carbamate dihydrofluoride [Example 29]”, which IC50 [1] is on record?
Its IC50 is 19 nM.

What about the IC50 [2] of the same substance?
The IC50 was 1.1 nM.

For “trans-4-aminocyclohexyl(5-{4-[6-({[(2R)-2-hydroxy-2-(8-hydroxy-2-oxo-1,2-dihydroquinolin-5-yl)ethyl]amino}methyl)-2-oxo-1,3-benzoxazol-3(2H)-yl]butyl}biphenyl-2-yl)carbamate dihydrochloride [Example 34]”, which IC50 [1] is on record?
Its IC50 is 14 nM.

And the IC50 [2]?
Its IC50 is 0.84 nM.

Which results are given for “trans-4-aminocyclohexyl[4-(4-{[2-chloro-4-({[(2R)-2-hydroxy-2-(8-hydroxy-2-oxo-1,2-dihydroquinolin-5-yl)ethyl]amino}methyl)-5-methoxybenzoyl]amino}butyl)-biphenyl-2-yl]carbamate dihydrochloride [Example 60]”?
IC50 [1]: 4.9 nM; IC50 [2]: 0.37 nM

For “trans-4-aminocyclohexyl[4-(4-{[4-(2-{[(2R)-2-hydroxy-2-(8-hydroxy-2-oxo-1,2-dihydroquinolin-5-yl)ethyl]amino}propyl)phenyl]amino}-4-oxobutyl)biphenyl-2-yl]carbamate dihydrochloride [Example 45]”, which IC50 [1] is on record?
Its IC50 is 4.7 nM.

And the IC50 [2]?
Its IC50 is 1.3 nM.

Which results are given for “trans-4-aminocyclohexyl[4-(4-{[4-({[(2R)-2-hydroxy-2-(8-hydroxy-2-oxo-1,2-dihydroquinolin-5-yl)ethyl]amino}methyl)phenyl]amino}-4-oxobutyl)biphenyl-2-yl]carbamate dihydrofluoride [Example 23]”?
IC50 [1]: 31 nM; IC50 [2]: 0.78 nM

For “trans-4-aminocyclohexyl[4-(4-{[6-({[(2R)-2-hydroxy-2-(8-hydroxy-2-oxo-1,2-dihydroquinolin-5-yl)ethyl]amino}methyl)pyridin-3-yl]amino}-4-oxobutyl)-biphenyl-2-yl]carbamate dihydrochloride [Example 57]”, which IC50 [1] is on record?
Its IC50 is 7.4 nM.

What about the IC50 [2] of the same substance?
Its IC50 is 0.86 nM.

Which results are given for “trans-4-aminocyclohexyl[4-(4-{[trans-4-({[(2R)-2-hydroxy-2-(8-hydroxy-2-oxo-1,2-dihydroquinolin-5-yl)ethyl]amino}methyl)cyclohexyl]amino}-4-oxobutyl)biphenyl-2-yl]carbamate dihydrochloride [Example 44]”?
IC50 [1]: 6.3 nM; IC50 [2]: 1.2 nM

Which results are given for “trans-4-aminocyclohexyl[4-(5-{[4-({[(2R)-2-hydroxy-2-(8-hydroxy-2-oxo-1,2-dihydroquinolin-5-yl)ethyl]amino}methyl)phenyl]amino}-5-oxopentyl)biphenyl-2-yl]carbamate dihydrochloride [Example 37]”?
IC50 [1]: 18 nM; IC50 [2]: 1.2 nM
